We go through 25 compounds from PMC12060211, “Development of Efficient Covalent Inactivators of a Fungal Aspartate Semialdehyde Dehydrogenase” (Drug Development Research, 2025).

This assay deals with T1, CalASADH (C. albicans ASADH, aspartate semialdehyde dehydrogenase) (Candida albicans, UniProt Q5ALM0).
T1 construct: gene HOM2; catalytic Cys-156; PDB 3hsk used as docking model of the same protein; ATCC 10231 is only the growth-test strain
T1 sequence (Q5ALM0 1-365): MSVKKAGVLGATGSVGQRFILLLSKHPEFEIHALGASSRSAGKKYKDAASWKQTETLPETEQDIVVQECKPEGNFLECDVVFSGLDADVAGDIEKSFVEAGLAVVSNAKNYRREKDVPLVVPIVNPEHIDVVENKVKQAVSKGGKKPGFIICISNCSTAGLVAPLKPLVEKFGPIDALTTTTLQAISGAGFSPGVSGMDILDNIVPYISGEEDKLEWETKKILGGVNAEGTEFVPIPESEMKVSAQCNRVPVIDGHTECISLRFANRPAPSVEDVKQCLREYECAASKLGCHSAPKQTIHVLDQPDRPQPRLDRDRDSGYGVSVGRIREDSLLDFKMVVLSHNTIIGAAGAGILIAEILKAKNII
Put plainly: time-dependent inactivation, NADPH formation at […] nm, kobs = kinact[I]/(Ki+[I]). Type of assay: biochemical. The conditions noted are these: covalent; irreversible inactivation; residual activity read at pH 8.6 with 0.3 mM L-aspartate-beta-semialdehyde, 20 mM phosphate, 1.5 mM NADP.

In turn, `O=S(=O)(/C=C/c1ccncc1)N1CCOCC1` [compound 11, vinyl sulfonamide, R1 2-morpholino, R2 4-pyridinyl] came in with a KI (inactivation) of 1170 ± 130 nM.
With `CC(=O)Nc1ccc(/C=C/S(C)(=O)=O)cc1` [compound 2, vinyl sulfone, R1 methyl, R2 acetanilide] the figure was 203000 ± 83000 nM; with `O=S(=O)(/C=C/c1ccncc1)c1ccccn1` [compound 10, vinyl sulfone, R1 2-pyridinyl, R2 4-pyridinyl], 2200 ± 180 nM.
With `NC(=O)/C=C/S(=O)(=O)c1ccccc1` [compound 13, sulfonyl acrylamide, R1 phenyl, R2 amide] the figure was 2300 ± 320 nM; with `CN(C)S(=O)(=O)/C=C/C[C@H](N)C(=O)O` [compound 15, vinyl sulfonamide, R1 dimethylamino, R2 alanyl], 27900 ± 4300 nM; with `O=C(/C=C/c1ccncc1)N1CCOCC1` [compound 24, acrylamide, R1 morpholino, R2 4-pyridinyl], 4410 ± 850 nM.
With `CS(=O)(=O)/C=C/c1ccc(O)cc1` [compound 1, vinyl sulfone, R1 methyl, R2 1,4-phenol] the figure was 538000 ± 300000 nM; with `CS(=O)(=O)CC(=O)c1ccccc1` [compound 23, sulfonyl ketone, R1 methyl, R2 phenyl], 2200 ± 770 nM.
The compound `N[C@@H](C/C=C/S(=O)(=O)Cc1ccccc1)C(=O)O` [compound 16, vinyl sulfone, R1 benzyl, R2 alanyl] yielded a KI (inactivation) of 1800 ± 820 nM.
With `O=S(=O)(/C=C/c1cccc2cnccc12)C1CC1` [compound 9, vinyl sulfone, R1 cyclopropyl, R2 5-isoquinoline] the figure was 2480 ± 410 nM; with `CS(=O)(=O)/C=C/C(N)=O` [compound 12, sulfonyl acrylamide, R1 methyl, R2 amide], 2700 ± 620 nM.
Compound `CC(=O)CS(C)(=O)=O` [compound 19, sulfonyl ketone, R1 methyl, R2 methyl] had a KI (inactivation) of 31700 ± 4900 nM.
With `CC(C)S(=O)(=O)/C=C/C[C@H](N)C(=O)O` [compound 17, vinyl sulfone, R1 isopropyl, R2 alanyl] the figure was 760 ± 150 nM; with `CS(=O)(=O)/C=C/c1ccc([N+](=O)[O-])s1` [compound 5, vinyl sulfone, R1 methyl, R2 5-nitrothiophene], 2100 ± 600 nM; with `CS(=O)(=O)/C=C/c1ccnc2ccccc12` [compound 6, vinyl sulfone, R1 methyl, R2 4-quinoline], 4400 ± 890 nM.
With `CS(=O)(=O)/C=C/c1ccc(O)cn1` [compound 4, vinyl sulfone, R1 methyl, R2 5-hydroxy-2-pyridine] the figure was 610 ± 91 nM; with `CS(=O)(=O)CC(=O)c1ccncc1` [compound 20, sulfonyl ketone, R1 methyl, R2 4-pyridinyl], 59000 ± 22000 nM.
With `CS(=O)(=O)/C=C/C[C@H](N)C(=O)O` [compound 14, vinyl sulfone, R1 methyl, R2 alanyl] the figure was 7600 ± 1200 nM.
Compound `CS(=O)(=O)/C=C/c1cccc2cnccc12` [compound 8, vinyl sulfone, R1 methyl, R2 5-isoquinoline] registered a KI (inactivation) of 650 ± 110 nM.
With `N[C@@H](C/C=C/S(=O)(=O)C1CC1)C(=O)O` [compound 18, vinyl sulfone, R1 cyclopropyl, R2 alanyl] the figure was 390 ± 93 nM; with `CS(=O)(=O)/C=C/c1ccc2ccccc2n1` [compound 7, vinyl sulfone, R1 methyl, R2 2-quinoline], 960 ± 240 nM.
With `CS(=O)(=O)CC(=O)c1cccnc1` [compound 21, sulfonyl ketone, R1 methyl, R2 3-pyridinyl] the figure was 25900 ± 6600 nM; with `NC(=O)/C=C/c1ccncc1` [compound 25, acrylamide, R1 amino, R2 4-pyridinyl], 3790 ± 1600 nM.
With `CS(=O)(=O)/C=C/c1ccc(C(N)=O)cc1` [compound 3, vinyl sulfone, R1 methyl, R2 benzamide] the figure was 531000 ± 134000 nM.
In turn, `CS(=O)(=O)CC(=O)c1ccccn1` [compound 22, sulfonyl ketone, R1 methyl, R2 2-pyridinyl] showed a KI (inactivation) of 6080 ± 760 nM.
